From US20040024024A1, “Aromatic sulfone hydroxamates and their use as protease inhibitors” (priority 2001, published 2004)
Where a name gives a salt, the structure may show the parent alone.

How the values were obtained:
Format in all cases: biochemical
Human recombinant MMP-1 = biological target: T1, Human recombinant MMP-1 (Homo sapiens, UniProt P03956); assay: In vitro MMP inhibition, IC50 determination (fluorogenic substrate I)
T1 construct: made in house; host or cells: MMP-1-transfected HT-1080 cells (spent media)
T1 sequence (P03956 100-469): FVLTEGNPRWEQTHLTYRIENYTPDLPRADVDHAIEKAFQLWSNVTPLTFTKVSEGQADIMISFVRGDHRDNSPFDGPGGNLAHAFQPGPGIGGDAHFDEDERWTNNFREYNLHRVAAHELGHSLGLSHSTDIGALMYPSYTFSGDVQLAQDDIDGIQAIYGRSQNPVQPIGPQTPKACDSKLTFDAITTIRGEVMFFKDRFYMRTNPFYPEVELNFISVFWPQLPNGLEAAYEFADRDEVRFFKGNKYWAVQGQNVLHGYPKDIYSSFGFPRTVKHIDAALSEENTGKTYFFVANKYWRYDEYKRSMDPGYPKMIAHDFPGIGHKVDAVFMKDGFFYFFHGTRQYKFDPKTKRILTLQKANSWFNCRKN
How it was run: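 Inhibitor dilutions were made in 100 mM Tris-HCl/100 mM NaCl/10 mM CaCl2 buffer, pH 7.5, and incubated at room temperature with activated proenzyme (from transfected HT-1080 media; APMA or trypsin) and 4 μM quenched methoxycoumarin peptide substrate. Loss of 415 nm fluorescence (328 nm excitation) against concentration gave IC50.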

Human recombinant MMP-9 [1] = biological target: T2, Human recombinant MMP-9 (Homo sapiens, UniProt P14780); assay: as above
T2 construct: made in house; host or cells: MMP-9-transfected HT1080 cells (spent media)
T2 sequence (P14780 107-707 limits assumed): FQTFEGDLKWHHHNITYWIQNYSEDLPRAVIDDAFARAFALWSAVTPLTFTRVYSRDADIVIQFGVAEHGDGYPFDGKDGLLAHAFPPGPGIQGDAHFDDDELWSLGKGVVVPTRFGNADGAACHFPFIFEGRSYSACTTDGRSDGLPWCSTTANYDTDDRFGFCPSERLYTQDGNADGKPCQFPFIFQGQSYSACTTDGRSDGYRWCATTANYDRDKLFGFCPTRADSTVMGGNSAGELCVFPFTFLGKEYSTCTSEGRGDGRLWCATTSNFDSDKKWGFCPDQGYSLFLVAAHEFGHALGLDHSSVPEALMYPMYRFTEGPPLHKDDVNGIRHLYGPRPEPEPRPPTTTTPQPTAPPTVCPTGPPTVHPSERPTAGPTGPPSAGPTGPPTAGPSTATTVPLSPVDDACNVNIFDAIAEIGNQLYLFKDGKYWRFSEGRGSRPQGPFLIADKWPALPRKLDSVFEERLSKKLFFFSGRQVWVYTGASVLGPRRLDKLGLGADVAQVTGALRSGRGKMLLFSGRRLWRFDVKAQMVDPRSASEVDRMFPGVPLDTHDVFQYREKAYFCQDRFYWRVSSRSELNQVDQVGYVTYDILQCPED
How it was run: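 Reduction in fluorescence (328 nm excitation, 415 nm emission) from cleavage of 4 μM quenched peptide substrate I, measured at room temperature against inhibitor concentration, gave IC50. Enzyme: trypsin- or APMA-activated MMP-9 purified from transfected HT1080 medium; buffer 100 mM Tris, 100 mM NaCl, 10 mM CaCl2, pH 7.5.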

Human recombinant MMP-9 [2] = biological target: T2, Human recombinant MMP-9; assay: In vitro MMP inhibition, Ki determination (fluorogenic substrate II)
Procedure: Several hydroxamates and salts thereof were analyzed in in vitro assays to determine their ability to inhibit the MMP cleavage of peptide substrates. Inhibition (Ki) and IC50 constants were calculated from the assayed hydroxamate-MMP interactions.
Human recombinant MMP-1, MMP-2, MMP-9, MMP-13, and MMP-14 were used in this assay. All enzymes were prepared in Assignee's laboratories following usual laboratory procedures. Protocols for the preparation and use of these enzymes are available in the scientific literature. See, e.g., Enzyme Nomenclature (Academic Press, San Diego, Calif., 1992) (and the citations therein). See also, Frije et al., J. Biol. Chem., 26(24), 16766-73 (1994).
The MMP-9 proenzyme was purified by gelatin Sepharose chromatography from spent media of MMP-9-transfected HT1080 cells provided by Dr. Howard Welgus of Washington University (St. Louis, Mo.).
All MMPs were activated using 4-aminophenylmercuric acetate (“APMA”, Sigma Chemical, St. Louis, Mo.) or trypsin. MMP-9 also was activated using human recombinant MMP-3 (purified in Assignee's laboratory following standard cloning and purification techniques).
Two fluorogenic, methoxycoumarin-containing polypeptide substrates were used in the MMP inhibition assays:
MCA-ArgProLeuGlyLeuDpaAlaArgGluArgNH2 (II)
Here, “Dpa” is 3-(2,4-dinitrophenyl)-L-2,3-diaminopropionyl group, and “MCA” is 7-methoxycoumarin-4-yl acetyl. Substrate (I) was purchased from Baychem (Redwood City, Calif.), and substrate II was prepared Assignee's laboratory. Substrate I was used in the IC50 determination assays, while substrate II was used in the Ki determination assays. In the absence of MMP inhibitory activity, either substrate is cleaved at the Gly-Leu peptide bond. This cleavage separates the highly fluorogenic peptide from the 2,4-dinitrophenyl quencher, thus resulting in increase of fluorescent intensity.
The stock solutions of the assayed hydroxamates (or salts thereof) were prepared in 1% dimethyl sulfoxide (DMSO). These stock solutions were diluted in Buffer A (100 mM Tris-HCl, 100 mM NaCl, 10 mM CaCl2, 0.05% polyoxyethylene 23 lauryl ether, pH 7.5) to obtain solutions with different hydroxamate concentrations, i.e., assay solutions with different concentrations of the assayed MMP inhibitory compound. The experiment controls contained the same amount of Buffer A/DMSO as the assayed sample, but contained no hydroxamate (or salt thereof).
The assays from which the Ki determinations were made were performed as follows. The assayed hydroxamate samples were incubated in separate wells of untreated white polystyrene plates (Nunc Nalgene International, Rochester, N.Y.), and analyzed on a Tecan SpectraFlour Plus plate reader. The excitation wavelength was 330 nm, and the emission wavelength—420 nm. All samples (assayed hydroxamates and controls) were incubated in separate plate wells at room temperature for 1 hr in the presence of 4 μM of MMP substrate (II). In the absence of MMP inhibitory activity, substrate II was cleaved at the Gly-Leu bond resulting in an increase of relative fluorescence. Inhibition was observed as a reduced rate of this increase in relative fluorescence. The various hydroxamates were analyzed using a single low enzyme concentration with a single substrate concentration fixed at or below the Km. This protocol is a modification of method by Knight et al., FEBS Lett., 296(3), 263-266 (1992). Apparent inhibitory constants were determined by non-linear regression of reaction velocity as a function of inhibitor and enzyme concentration using Morrison's equation, as described by Kuzmic, Anal. Biochem. 286, 45-50 (2000). Modifications were made in the non-linear regression method to allow a common control reaction rate and effective enzyme concentration to be shared between all dose-response relationships on a given assay plate. […]

[3] = substrate (I) 4 μM, room temperature, values not in parenthesis
[4] = substrate (II) 4 μM, 1 hr room temperature, apparent Ki, values in parenthesis

Compound | IC50 (Human recombinant MMP-1; [3]) [µM] | IC50 (Human recombinant MMP-9 [1]; [3]) [µM] | Ki (Human recombinant MMP-9 [2]; [4]) [µM] | IC50 (Human recombinant MMP-1; value outside parenthesis) [µM] | IC50 (Human recombinant MMP-9 [1]; value outside parenthesis) [µM] | Ki (Human recombinant MMP-9 [2]; value in parenthesis) [µM]
O=C(NO)C1(S(=O)(=O)c2ccc(OCCCc3nc(-c4ccc(OC(F)(F)F)cc4)no3)cc2)CCN(C2CC2)CC1 [Example 51, 1-cyclopropyl-N-hydroxy-4-{[4-(3-{3-[4-(trifluoromethoxy)phenyl]-1,2,4-oxadiazol-5-yl}propoxy)phenyl]sulfonyl}piperidine-4-carboxamide Hydrochloride] | > 10 | 7.98 | 0.0987 |  |  | 
O=C(NO)C1(S(=O)(=O)c2ccc(OCCCn3nnc(-c4ccc(OC(F)(F)F)cc4)n3)cc2)CCN(CC2CC2)CC1 [Example 53] | > 10 | 0.0755 | 2.9 |  |  | 
CC(C)C(=O)c1cccc(CCCOc2ccc(S(=O)(=O)C3(C(=O)NO)CCOCC3)cc2)c1 [Example 95] |  |  |  | > 10 | 1.2 | 0.788
O=C(NO)C1(S(=O)(=O)c2ccc(OCCCc3cccc(Cc4ccccc4)c3)cc2)CCOCC1 [Example 98] |  |  |  | > 10 | 2.42 | 1.45
O=C(NO)C1(S(=O)(=O)c2ccc(OCCc3cccc(-c4ccncc4)c3)cc2)CCOCC1 [Example 113] |  |  |  | > 10 | 1.98 | 0.161
O=C(NO)C1(S(=O)(=O)c2ccc(OCCc3cccc(-c4ccccc4F)c3)cc2)CCOCC1 [Example 115] |  |  |  | > 10 | > 10 | 1.98
O=C(NO)C1(S(=O)(=O)c2ccc(OCCc3cccc(-c4ccc(F)cc4)c3)cc2)CCOCC1 [Example 123] |  |  |  | > 10 | > 10 | 2.13
O=C(NO)C1(S(=O)(=O)c2ccc(OCCc3cccc(-c4cccnc4)c3)cc2)CCOCC1 [Example 125] |  |  |  | 2.94 | 0.963 | 0.146
Cc1ccc(-c2cccc(CCOc3ccc(S(=O)(=O)C4(C(=O)NO)CCOCC4)cc3)c2)cc1 [Example 127] |  |  |  | > 10 | > 10 | 4.23
O=C(NO)C1(S(=O)(=O)c2ccc(OCCCc3cccc(-c4ccc(F)cc4)c3)cc2)CCN(C2CC2)CC1 [Example 139] |  |  |  | > 10 | 4.51 | 1.39
COCCN1CCC(C(=O)NO)(S(=O)(=O)c2ccc(OCCCc3cccc(-c4ccc(F)cc4)c3)cc2)CC1 [Example 140] |  |  |  | > 10 | 1.69 | 0.754
O=C(NO)C1(S(=O)(=O)c2ccc(OCCCc3cccc(-c4cccnc4)c3)cc2)CCOCC1 [Example 150] |  |  |  | > 10 | 0.53 | 0.125
COCCN1CCC(C(=O)NO)(S(=O)(=O)c2ccc(OCCCc3nc(-c4ccccc4OC(F)(F)F)no3)cc2)CC1 [Example 152] |  |  |  | > 10 | 0.0723 | 0.0445
O=C(NO)C1(S(=O)(=O)c2ccc(OCCCc3cccc(Br)c3)cc2)CCOCC1 [Example 154] |  |  |  | > 10 | 0.111 | 0.151
CCc1ccccc1-c1noc(CCCOc2ccc(S(=O)(=O)C3(C(=O)NO)CCN(CCOC)CC3)cc2)n1 [Example 155] |  |  |  | > 10 | 1.17 | 0.172
O=C(NO)C1(S(=O)(=O)c2ccc(OCCOc3cccc(-c4ccccc4)c3)cc2)CCOCC1 [Example 157] |  |  |  | > 10 | 2.47 | 1.39

Compound | IC50 (Human recombinant MMP-1; [3]) [µM] | IC50 (Human recombinant MMP-9 [1]; [3]) [µM] | Ki (Human recombinant MMP-9 [2]; [4]) [µM] | IC50 (Human recombinant MMP-1; value outside parenthesis) [µM] | IC50 (Human recombinant MMP-9 [1]; value outside parenthesis) [µM] | Ki (Human recombinant MMP-9 [2]; value in parenthesis) [µM]
O=C(NO)C1(S(=O)(=O)c2ccc(OCCCc3cccc(-c4cccc(F)c4)c3)cc2)CCOCC1 [Example 161] |  |  |  | > 10 | 2.63 | 1.73
O=C(NO)C1(S(=O)(=O)c2ccc(OCCCc3cccc(-c4ccccc4F)c3)cc2)CCOCC1 [Example 163] |  |  |  | > 10 | 2.88 | 2.5
COCCN1CCC(C(=O)NO)(S(=O)(=O)c2ccc(OCCCc3nc(-c4ccc(CC(C)C)cc4)no3)cc2)CC1 [Example 175] |  |  |  | > 10 | 7.3 | 1.39
COCCN1CCC(C(=O)NO)(S(=O)(=O)c2ccc(OCCCc3nnc(-c4ccccc4C(F)(F)F)o3)cc2)CC1 [Example 178] |  |  |  | > 10 | 1.17 | 0.306
O=C(CCCOc1ccc(S(=O)(=O)C2(C(=O)NO)CCOCC2)cc1)Nc1cccc(OC(F)(F)F)c1 [Example 181] |  |  |  | > 10 | 0.0264 | 0.0405
CC(C)c1cccc(NC(=O)CCCOc2ccc(S(=O)(=O)C3(C(=O)NO)CCOCC3)cc2)c1 [Example 182] |  |  |  | > 10 | 0.0621 | 0.0854
COCCN1CCC(C(=O)NO)(S(=O)(=O)c2ccc(OCCCc3nc(-c4ccc(OC(F)(F)F)cc4)no3)cc2)CC1 [Example 190] |  |  |  | > 10 | 1.74 | 0.669
O=C(NO)C1(S(=O)(=O)c2ccc(OCCCc3ccnc(-c4ccccc4)c3)cc2)CCOCC1 [Example 197] |  |  |  | > 10 | 0.432 | 0.334
O=C(CCCc1ccc(S(=O)(=O)C2(C(=O)NO)CCOCC2)cc1)c1cccc(-c2ccccc2)c1 [Example 219] |  |  |  | > 10 | 0.0777 | 0.0595
O=C(CCCOc1ccc(S(=O)(=O)C2(C(=O)NO)CCOCC2)cc1)Nc1ccc(OC(F)(F)F)cc1 [Example 228] |  |  |  | 6.87 | 0.18 | 0.247
Cc1cc(OC(F)(F)F)ccc1NC(=O)CCCOc1ccc(S(=O)(=O)C2(C(=O)NO)CCOCC2)cc1 [Example 229] |  |  |  | 5.03 | 0.294 | 0.281
COc1ccc(/C(C#N)=C/CCCOc2ccc(S(=O)(=O)C3(C(=O)NO)CCN(C4CC4)CC3)cc2)cc1 [Example 233] |  |  |  | > 10 | 0.832 | 0.509
CN(C(=O)CCCOc1ccc(S(=O)(=O)C2(C(=O)NO)CCOCC2)cc1)c1ccc(OC(F)(F)F)cc1 [Example 249] |  |  |  | > 10 | 3.63 | 1.49
O=C(CCCOc1ccc(S(=O)(=O)C2(C(=O)NO)CCOCC2)cc1)Nc1ccc(OC(F)(F)F)cc1 [Example 250] |  |  |  | 4.41 | 0.0225 | 0.0125
Cc1cc(NC(=O)CCCOc2ccc(S(=O)(=O)C3(C(=O)NO)CCOCC3)cc2)ccc1OC(C)C [Example 290] |  |  |  | > 10 | > 10 | > 10
